pIC50: −log10 of the molar value. Entries after “also recorded” stand apart in the source; their conditions may differ. Read-outs that look alike come from different tables or passages of the source.
What was measured:
[1] = Brain exposure pharmacokinetics in rats; format: in vivo; details: male Sprague Dawley rats, oral gavage 10 mg/kg
Experimental: The brain exposure of exemplary compounds, e.g., 1, 2, and 4 were evaluated in male Sprague Dawley rats after oral gavage administration at 10 mg/kg. The formulation was 5% DMSO+10% PEG400 in saline. Rats were fasted overnight with food returned 4 hours post-dose. CSF was collected by direct needle puncture into the cisterna magna.
For both rat and mouse studies, brain tissue was washed with 3 volumes of saline prior to homogenization. Brain tissue was homogenized with 3 volumes (v/w) of phosphate buffered saline. Plasma, brain homogenate, and CSF samples (rat only) were analyzed by LC-MS/MS and the concentration of test compound at each time point was determined by linear regression.
Pharmacokinetic parameters were calculated from the plasma, brain, and CSF concentrations by non-compartmental modeling using WinNonlin 8.2.

IL-6 induced pSTAT3 = IL-6 induced pSTAT3 assay in TF-1 cells; format: cell-based; details: Homo sapiens, read-out: Cellular selectivity (IL-6/pSTAT3)
Experimental: The following example describes the IL-6 induced pSTAT3 assay used to determine the cellular selectivity (IL-6/pSTAT3) of the TYK2 inhibitors.
TF-1 (ATCC®, CRL-2003™) cells were cultured in RPMI 1640 Medium, with GlutaMAX™ Supplement, HEPES for Cell Culture (Life Technologies, 72400047), 10% Fetal Bovine Serum (Life Technologies, 26400044), 2 ng/mL human recombinant GM-CSF (Life Technologies, PHC2013), 1 mM Sodium pyruvate (Life Technologies, 11360039), 1% MEM NEAA (Life Technologies, 11140-035), 1% Penicillin/Streptomycin (Life Technologies, 15140-122).
TF-1 (70×10^6) cells were starved overnight in T150 flasks (Opti-MEM™ I Reduced Serum Medium, no phenol red (Life Technologies, 11058-021), 1 mM Na pyruvate (Life Technologies, 11360039), 1% MEM NEAA (Life Technologies, 11140-035), and 1% Penicillin/Streptomycin (Life Technologies, 15140-122)) then seeded into 96-well TPP plates (150 000 cell/well) and incubated with test compounds (Final Concentration [nM]10000-0.05) for 30 minutes at 37° C. […] Stimulation was terminated by addition of lysis buffer (MSD K150SVD) and pSTAT3 detection was measured with Phospho-STAT3 (Tyr705) Kit MSD K150SVD)) according to manufacturer's instruction. Briefly, cell lysates were added to pre-blocked plates, sealed, and shake for 1 hour at room temperature. Plates were then washed and incubated with detection antibody for 1 hour at room temperature. After washing, Read Buffer was added, and plates were read on MSD instrument (Model 1300 MSD Quickplex SQ120).

[2] = GLP in vivo assay of genotoxicity

SMILES | Brain Kpu, u [1] | pIC50 (IL-6 induced pSTAT3) | genotoxicity [2] | genotoxicity ([2]; listed as compound 2)
C[C@@H](c1ccc(Nc2cc(Nc3ncccc3S(C)(=O)=O)ncn2)nc1)N1CC2(COC2)C1 [Compound 1, (S)—N^4-(5-(1-(2-oxa-6-azaspiro[3.3]heptan-6-yl)ethyl)pyridin-2-yl)-N^6-(3-(methylsulfonyl)pyridin-2-yl)pyrimidine-4,6-diamine] | †† (†† 0.1-0.2 u) | < 5.00 |  | 
C[C@@H](c1ccc(Nc2cc(Nc3ncc(F)cc3S(C)(=O)=O)ncn2)nc1)N1CC2(COC2)C1 [Compound 2, (S)—N^4-(5-(1-(2-oxa-6-azaspiro[3.3]heptan-6-yl)ethyl)pyridin-2-yl)-N^6-(5-fluoro-3-(methylsulfonyl)pyridin-2-yl)pyrimidine-4,6-diamine] | † († <0.1 u) | < 5.00 | substantially no genotoxicity; also recorded: virtually no genotoxicity | substantially non-genotoxic

From patent publication US20260048051A1, “TREATMENT OF INFLAMMATORY BOWEL DISEASE” (Atomwise Inc., priority 2024, published 2026)
